Each structure is given as a SMILES string.

This is an account of results in patent publication US20250140406A1, “CLASSIFYING TUMORS AND PREDICTING RESPONSIVENESS” (Oncocyte Corporation, priority 2022, published 2025).

One experiment deals with cancer cell lines classified IM, MSL, M. Put plainly: PRISM screen compound sensitivity correlated with IM, MSL and M subtype of cell lines (101 gene signature).
Settings: not given
Format: cell-based.
For the compound `Cc1nc2n(c(=O)c1CCN1CCC(c3noc4cc(F)ccc34)CC1)CCCC2` [risperidone], the TNBCType train result is given as “MSL”.

The experiment is the same for the next values; noted with them: subtype (IM, MSL or M) assigned to the compound by negative correlation of PRISM sensitivity with subtype; training cell set (371 cell lines), 101 gene signature.
For the compound `C=Cc1cc(O)cc2nc(-c3ccc(O)c(F)c3)oc12` [prinaberel], the TNBCType train result was “MSL”.

With `CCN(CC)CCn1c(=O)c(Cc2ccc(OC)cc2)nc2ccccc21` [caroverine], the TNBCType train entry is given as “MSL”.

As for `COc1cc(OC)cc(N(CCNC(C)C)c2ccc3ncc(-c4cnn(C)c4)nc3c2)c1` [erdafitinib], the TNBCType train result was “MSL”.

For the compound `CC(=O)N1N=C(c2ccc(N)cc2)c2cc3c(cc2C[C@H]1C)OCO3` [talampanel], the TNBCType train result is recorded as “MSL”.

Regarding `CC(C)NC(=O)COc1cccc(-c2nc(Nc3ccc4[nH]ncc4c3)c3ccccc3n2)c1` [KD025], the TNBCType train entry was “MSL”.

For `Cc1ccc(-c2ccc(C)cn2)nc1` [abametapir], the TNBCType train result is given as “MSL”.

For `O=C(O)CCc1ccc(NCc2cccc(Oc3ccccc3)c2)cc1` [GW-9508], the TNBCType train entry is “MSL”.

On to `Oc1ccc(C2=Cc3ccc(O)cc3OC2)cc1` [idronoxil], for which the TNBCType train result was “MSL”.

On to `O=C1C=CC[C@@H]2[C@H]3CCCN4CCC[C@@H](CN12)[C@@H]34` [sophocarpine], for which the TNBCType train result was “MSL”.

`CCCOc1ccc(S(=O)(=O)N2CCN(CCO)CC2)cc1-c1nc2c(CCC)cn(CC)c2c(=O)[nH]1` [mirodenafil]: the TNBCType train result is “MSL”.

On to `CN(C)c1cccc(-c2c3c(=O)n(-c4ccccc4Cl)[nH]c3cc(=O)n2C)c1` [GKT137831], for which the TNBCType train entry is recorded as “MSL”.

As to `O=C(O)C[C@H](O)C[C@H](O)/C=C/c1c(C2CC2)nc2ccccc2c1-c1ccc(F)cc1` [pitavastatin], the TNBCType train entry is reported as “MSL”.

For the compound `CCCCOc1nc(N)c2c(n1)N(Cc1cccc(CN3CCCC3)c1)CC(=O)N2` [GS-9620], the TNBCType train entry is “MSL”.

Consider `CC[C@]1(O)C[C@@H]2CN(CCc3c([nH]c4ccccc34)[C@@](C(=O)OC)(c3cc4c(cc3OC)N(C)[C@H]3[C@@](O)(C(N)=O)[C@H](O)[C@]5(CC)C=CCN6CC[C@]43[C@@H]65)C2)C1` [vindesine], for which the TNBCType train result is recorded as “MSL”.

As for `Nc1cc(F)ccc1NC(=O)/C=C/c1cnn(C/C=C/c2ccccc2)c1` [RGFP966], the TNBCType train result is recorded as “MSL”.

Regarding `COc1c2occc2c(OC)c2c(=O)cc(C)oc12` [khellin], the TNBCType train entry was “MSL”.

With `Nc1ccn([C@H]2CO[C@@H](CO)S2)c(=O)n1` [apricitabine], the TNBCType train result was “MSL”.

Staying with this experiment, now noted: subtype (IM, MSL or M) the PRISM compound sensitivity is associated with; training cell set (371 cell lines); 101 gene signature.
Turning to `CC[C@H](C)C(=O)O[C@H]1CCC=C2C=C[C@H](C)[C@H](CC[C@@H]3C[C@@H](O)CC(=O)O3)[C@H]21` [mevastatin], the TNBCType train result is “MSL”.

For the compound `O=C(/C=C/c1ccc(O)c(O)c1)OCCc1ccccc1` [caffeic-acid-phenethyl-ester], the TNBCType train result is listed as “MSL”.

Turning to `COc1cc2c3cc1Oc1cc(ccc1O)C[C@@H]1c4c(cc(OC)c(O)c4Oc4ccc(cc4)C[C@@H]3N(C)CC2)CC[N+]1(C)C` [tubocurarine], the TNBCType train result was “MSL”.

As for `O=P(O)(O)CP(=O)(O)O` [medronic-acid], the TNBCType train result was “MSL”.

For the compound `O=C(Cn1ccnc1[N+](=O)[O-])NCCO` [etanidazole], the TNBCType train entry is “MSL”.

As to `CCOC(=O)c1ncn2c1CN(C)C(=O)c1cc(F)ccc1-2` [flumazenil], the TNBCType train entry is “MSL”.

As to `CN1CC2c3ccccc3Oc3ccc(Cl)cc3C2C1` (centres unmarked) [asenapine], the TNBCType train entry was “MSL”.

The same experiment, now with this note: subtype (IM, MSL or M) with which PRISM compound sensitivity is negatively correlated; training cell set, 101 gene signature.
Regarding `Cc1cn2nc([C@@H]3CCCCN3C(=O)c3cc(Cl)ccc3NS(C)(=O)=O)cc2nc1N1CC[C@H](N)C1` [presatovir], the TNBCType train entry is “MSL”.

`CN(C)C(=S)SC(=S)N(C)C` [tetramethylthiuram-monosulfide]: the TNBCType train entry is listed as “MSL”.

As for `Cc1ccc2c(-c3ccccc3)nc(=O)n(C(C)C)c2c1` [proquazone], the TNBCType train entry was “MSL”.

Take `CCCSc1nc(N[C@@H]2C[C@H]2c2ccc(F)c(F)c2)c2nnn([C@@H]3C[C@H](OCCO)[C@@H](O)[C@H]3O)c2n1` [ticagrelor]: the TNBCType train result was “MSL”.

As to `C[C@]12CC[C@H](O)C[C@H]1CC[C@@H]1[C@@H]2CC[C@]2(C)[C@@H](c3ccc(=O)oc3)C[C@H]3O[C@]132` [resibufogenin], the TNBCType train result is listed as “MSL”.

On to `O=C1NC(c2ccccc2)(c2ccccc2)C(=O)N1COP(=O)(O)O` [fosphenytoin], for which the TNBCType train entry is reported as “MSL”.

Regarding `COC(=O)c1ccc2c(c1)NC(=O)/C2=C(\Nc1ccc(N(C)C(=O)CN2CCN(C)CC2)cc1)c1ccccc1` [nintedanib], the TNBCType train entry is reported as “MSL”.

As for `O=C(Nc1ccccc1F)N[C@H]1N=C(c2ccccc2)c2ccccc2NC1=O` [RSV604], the TNBCType train entry is recorded as “MSL”.

In the case of `CCOC(=O)COc1ccc2c(c1)C[C@@H](NC[C@H](O)c1cccc(Cl)c1)CC2` [amibegron], the TNBCType train result is given as “MSL”.

Take `OC1CCC(Nc2nc(-c3ccccc3)nc3[nH]ccc23)CC1` (centres unmarked) [SLV-320]: the TNBCType train entry is listed as “MSL”.

As for `COc1ccc(N(C)c2nc(C)nc3ccccc23)cc1` [verubulin], the TNBCType train entry is “MSL”.

With `O=C(N[C@H]1CN2CCC1CC2)c1cnc2ccsc2c1O` [pumosetrag], the TNBCType train entry is “MSL”.

As for `C[C@H]1CNCCCN1S(=O)(=O)c1cccc2cncc(F)c12` [ripasudil], the TNBCType train entry is “MSL”.

In the case of `O=C(Cn1c(=O)sc2ccc(Cl)cc21)N1CCN(CCO)CC1` [tiaramide], the TNBCType train entry was “MSL”.

For the compound `CC(C)(C)c1ccc(S(=O)(=O)Nc2ccc(Cl)cc2C(=O)c2cc[n+]([O-])cc2)cc1` [vercirnon], the TNBCType train result is listed as “MSL”.

Turning to `CC(C)Oc1ccc(-c2nc(-c3cccc4c3CC[C@@H]4NCCO)no2)cc1C#N` [ozanimod], the TNBCType train entry is given as “MSL”.

Consider `CC[C@H]1OC(=O)[C@@](C)(F)C(=O)[C@H](C)[C@@H](O[C@@H]2O[C@H](C)C[C@H](N(C)C)[C@H]2O)[C@](C)(OC)C[C@@H](C)C(=O)[C@H](C)[C@H]2N(CCCCn3cc(-c4cccc(N)c4)nn3)C(=O)O[C@]12C` [solithromycin], for which the TNBCType train result was “MSL”.

In the case of `COc1cc2nccc(Oc3ccc(NC(=O)NC4CC4)c(Cl)c3)c2cc1C(N)=O` [lenvatinib], the TNBCType train entry is “MSL”.

Consider `Cc1ccc2c(=O)c3cccc(CC(=O)O)c3oc2c1C` [ASA-404], for which the TNBCType train entry is “MSL”.

With `N#CCC(=O)NN` [cyacetacide], the TNBCType train entry was “MSL”.

Turning to `CSc1ccc(C(=O)c2[nH]c(=O)[nH]c2C)cc1` [enoximone], the TNBCType train result was “MSL”.

Staying with this experiment, now noted: subtype (IM, MSL or M) with which compound sensitivity is negatively correlated; training cell set (371 cell lines), 101 gene signature.
On to `CC1=C(C(=O)Nc2cc3cn[nH]c3cc2F)C(c2ccc(C(F)(F)F)cc2)CC(=O)N1` (centres unmarked) [GSK429286A], for which the TNBCType train result is reported as “MSL”.

Take `O=C(OCC(O)CO)c1ccccc1Nc1ccnc2c(C(F)(F)F)cccc12` (centres unmarked) [floctafenine]: the TNBCType train result is recorded as “MSL”.

For `Nc1ccc(S(N)(=O)=O)cc1` [sulfanilamide], the TNBCType train result is on record as “MSL”.

On to `O=C1c2cccc(O)c2C(=O)c2c(O)cccc21` [dantron], for which the TNBCType train entry is “MSL”.

With `CC[C@H](CC[C@@H](C)[C@H]1CC[C@H]2[C@@H]3CC=C4C[C@@H](O[C@@H]5O[C@H](CO)[C@@H](O)[C@H](O)[C@H]5O)CC[C@]4(C)[C@H]3CC[C@]12C)C(C)C` [daucosterol], the TNBCType train entry was “MSL”.

On to `COc1ccc2[nH]c([S+]([O-])Cc3ncc(C)c(OC)c3C)nc2n1` (centres unmarked) [tenatoprazole], for which the TNBCType train entry is “MSL”.

`O=c1[nH]cnc2nc[nH]c12` [hypoxanthine]: the TNBCType train entry is listed as “MSL”.

Consider `CC(C)(Oc1ccc(Cl)cc1)C(=O)O` [clofibric-acid], for which the TNBCType train entry is recorded as “MSL”.

With `Oc1c(Cl)cc(Cl)c2cccnc12` [chloroxine], the TNBCType train result is reported as “MSL”.

Turning to `CC(CC(C(N)=O)(c1ccccc1)c1ccccc1)N(C)C` (centres unmarked) [aminopentamide], the TNBCType train entry is listed as “MSL”.

Turning to `C[C@@H](c1nc(-c2ccc(C#N)cc2)cs1)[C@](O)(Cn1cncn1)c1ccc(F)cc1F` [ravuconazole], the TNBCType train entry is reported as “MSL”.

With `C[C@@H](c1nc(-c2ccc(C#N)cc2)cs1)[C@](O)(Cn1cncn1)c1cc(F)ccc1F` [isavuconazole], the TNBCType train result was “MSL”.

Turning to `CC(c1cc2ccccc2s1)N(O)C(N)=O` (centres unmarked) [zileuton], the TNBCType train result is reported as “MSL”.

In the case of `C=C[C@](C)(O)CC[C@@H]1[C@@]2(C)CCCC(C)(C)[C@@H]2CC[C@@]1(C)O` [sclareol], the TNBCType train result is on record as “MSL”.

Regarding `CCCCN1CCC(CNC(=O)c2c3n(c4ccccc24)CCCO3)CC1` [piboserod], the TNBCType train entry is “MSL”.

Consider `CC(O)c1cc(C(=O)N[C@@H](C)Cn2ccc(-c3ccc(C#N)c(Cl)c3)n2)[nH]n1` (some centres unmarked) [ODM-201], for which the TNBCType train entry is recorded as “MSL”.

Take `CCOC(=O)OC(C)OC(=O)[C@@H]1N2C(=O)[C@@H](NC(=O)[C@H](N)c3ccccc3)[C@H]2SC1(C)C` (some centres unmarked) [bacampicillin]: the TNBCType train entry is given as “MSL”.

Take `CC(C(=O)O)c1cccc(C(=O)c2ccccc2)c1` (centres unmarked) [ketoprofen]: the TNBCType train result is recorded as “MSL”.

`O=C(/C=C/c1ccc(O)c(O)c1)c1ccc(O)cc1O` [butein]: the TNBCType train entry is “MSL”.

For `Cc1[nH]cnc1-c1ccc(Cl)cc1` [lofemizole], the TNBCType train result is given as “MSL”.

Staying with this experiment, now noted: subtype (IM, MSL, M) with which compound sensitivity correlates; test set.
In the case of `COc1cc(OC)cc(N(CCNC(C)C)c2ccc3ncc(-c4cnn(C)c4)nc3c2)c1` [erdafitinib], the TNBCType test result was “MSL/M”.

`C[C@]12CC[C@H](O)C[C@H]1CC[C@@H]1[C@@H]2CC[C@]2(C)[C@@H](c3ccc(=O)oc3)C[C@H]3O[C@]132` [resibufogenin]: the TNBCType test result was “MSL”.

Regarding `O=C(Nc1ccccc1F)N[C@H]1N=C(c2ccccc2)c2ccccc2NC1=O` [RSV604], the TNBCType test result is listed as “MSL”.

Take `O=c1[nH]c2ccccc2n1C1CCN(CCOc2ccccc2)CC1` [oxiperomide]: the TNBCType test entry is recorded as “MSL/M”.

The experiment is the same for the next values; noted with them: subtype (IM, MSL, M) with which compound sensitivity correlates; training set.
Take `COc1cc(OC)cc(N(CCNC(C)C)c2ccc3ncc(-c4cnn(C)c4)nc3c2)c1` [erdafitinib]: the TNBCType train result is “MSL”.

With `C[C@]12CC[C@H](O)C[C@H]1CC[C@@H]1[C@@H]2CC[C@]2(C)[C@@H](c3ccc(=O)oc3)C[C@H]3O[C@]132` [resibufogenin], the TNBCType train entry is reported as “MSL”.

In the case of `O=C(Nc1ccccc1F)N[C@H]1N=C(c2ccccc2)c2ccccc2NC1=O` [RSV604], the TNBCType train entry is “MSL”.

The same experiment, now with this note: subtype with which compound sensitivity correlates; test cell lines.
In the case of `COc1cc(OC)cc(N(CCNC(C)C)c2ccc3ncc(-c4cnn(C)c4)nc3c2)c1` [erdafitinib], the TNBCType test result is on record as “MSL/M”.

For the compound `CC[C@H](C)C(=O)O[C@H]1CCC=C2C=C[C@H](C)[C@H](CC[C@@H]3C[C@@H](O)CC(=O)O3)[C@H]21` [mevastatin], the TNBCType test result was “MSL”.

The experiment is the same for the next values; noted with them: subtype with which compound sensitivity correlates; training cell lines.
`COc1cc(OC)cc(N(CCNC(C)C)c2ccc3ncc(-c4cnn(C)c4)nc3c2)c1` [erdafitinib]: the TNBCType train entry is on record as “MSL”.

Turning to `CC[C@H](C)C(=O)O[C@H]1CCC=C2C=C[C@H](C)[C@H](CC[C@@H]3C[C@@H](O)CC(=O)O3)[C@H]21` [mevastatin], the TNBCType train entry is recorded as “MSL”.
